For orientation: EC50 means the concentration giving half of the maximal effect.

Like-named read-outs stand apart in the source and are kept apart here.

The text below walks through data of patent US20130178469A1, “NOVEL ANTIVIRAL AGENTS” (SHANGHAI INSTITUTE OF ORGANIC CHEMISTRY (SIOC), priority 2010, published 2013).

The subject of one experiment is HIV. Description: Inhibition of HIV Replication (NL4-3), extracellular p24 in HuT-78 cells. In kind it is cell-based. The protocol:
HuT-78 cells are seeded into 96 well microtitre plates at 50,000 cells per […] per well in RF-10 containing 2 μg/mL polybrene (RF-10/2). Compounds are prepared to 4× final concentration in RF-10/2, and […] added to cells. Virus (40 μL in RF-10/2 containing 1600 pfu) is added to each well or […] RF-10/2 for negative controls and for assaying compound cytotoxicity. After 24 hrs, an additional 90 μL of media or media containing 1× compound is added to each well. At 4 days post infection, 100 μL of media is removed from each well and replaced with 100 μl of fresh media with or without compound. Forty eight hours later supernatants are harvested and levels of extracellular p24 determined. Supernatants are diluted 1 in 10,000 and p24 levels assayed using the Vironostika p24 assay kit. EC50 is calculated as the concentration required to inhibit HIV p24 production to 50% that of no drug controls.
In the tables below, this assay type is referred to as NL4-3.

The next experiment deals with HIV-1. Description: Luciferase Assay with single-round reporter virus (NLXLuc or HIV-Luc). It is filed as cell-based. An excerpt: Infectivity assays using reporter viruses derived from lentiviral vectors capable of a single round of infection were used to determine the activity (EC50) of compounds. The DNA used to generate viruses for infection was the full-length HIV-1 genome which had been envelope-deleted. In addition, a reporter gene (the firefly luciferase gene from Photinus pyralis) was cloned into the nefregion of the HIV backbone for ease of assay readout. […]. Culture supernatants containing VSV-G pseudotyped virions were harvested 64 h post transfection, clarified by centrifugation to remove cell debris, and frozen at −70° C. until use.
293FT cells were plated out at 12000 cells per well in CellView 96-well cell culture plates (Invitrogen) 16 h prior to compound addition. Compounds were preincubated with cells for 4 h at 37° C. prior to the addition of virus sufficient to generate approximately 10000 Luciferase light units (as measured by the Victor Wallace luminometer) upon assaying using the Bright-Glo™ reagent (Promega) according to the manufacturer's instructions at 48 h post infection.
In the tables below, this assay is referred to as NLXLuc or HIV-Luc.

Setting [1] is: Human immunodeficiency virus 1, NL43, HuT78.

As to `O=C(NCc1ccc(Cl)c(Cl)c1)c1nc2c(N3CCCS3(=O)=O)cc(N3CCOCC3)cn2c(=O)c1O` [Example 25, N-(3,4-dichlorobenzyl)-9-(1,3-propanesultam)-3-hydroxy-7-morpholino-4-oxo-4H-pyrido[1,2-a]pyrimidine-2-carboxamide], the EC50 in the experiment on HIV (setting [1]) was under 1 nM; in the experiment with HIV-1 (Human immunodeficiency virus 1, HEK-293T), under 1 nM. `Cc1ccc2nc(C(=O)NCc3ccc(Cl)c(Cl)c3)c(O)c(=O)n2c1` [drawing 189, reference compound] registered an EC50 in the experiment on HIV (setting [1]) of 100 to 1000 nM. The molecule `O=C(NCc1ccc(Cl)c(Cl)c1)c1nc2c(N3CCOCC3)cc(N3CCOCC3)cn2c(=O)c1O` [Example 22, N-(3,4-dichlorobenzyl)-3-hydroxy-7,9-dimorpholino-4-oxo-4H-pyrido[1,2-a]pyrimidine-2-carboxamide] had an EC50 in the experiment with HIV (setting [1]) of 1 to 10 nM. Regarding `O=C(NCc1ccc(F)cc1)c1nc2c(N3CCCS3(=O)=O)cc(N3CCOCC3)cn2c(=O)c1O` [Example 24.4, N-(4-fluorobenzyl)-9-(1,3-propanesultam)-3-hydroxy-7-morpholino-4-oxo-4H-pyrido[1,2-a]pyrimidine-2-carboxamide], the EC50 with HIV (setting [1]) was under 1 nM; in the experiment on HIV-1 (Human immunodeficiency virus 1) it was 10 to 20 nM. Molecule `Cc1ccc2nc(C(=O)NCc3ccc(F)cc3)c(O)c(=O)n2c1` [drawing 183, reference compound] registered an EC50 in the experiment on HIV (setting [1]) of 100 to 1000 nM. Consider `O=C(NCc1ccc(F)cc1)c1nc2ccc(Br)cn2c(=O)c1O` [reference compound], for which the EC50 in the experiment with HIV (setting [1]) was in the range of 100 to 1000 nM. Take `CCOC(=O)NC1=CC(N2CCOCC2)=CN2C(=O)C(O)C(C(=O)NCc3ccc(F)cc3)=NC12` (stereo not drawn) [Example 23.4, ethyl 2-(4-fluorobenzylcarbamoyl)-3-hydroxy-7-morpholino-4-oxo-4,9a-dihydro-3H-pyrido[1,2-a]pyrimidin-9-yl carbamate]: the EC50 in the experiment on HIV fell in the range of 1 to 10 nM.

As for `CC(=O)Nc1cc(N2CCOCC2)cn2c(=O)c(O)c(C(=O)NCc3ccc(F)cc3)nc12` [Example 26.5, 9-acetamido-N-(4-fluorobenzyl)-3-hydroxy-7-morpholino-4-oxo-4H-pyrido[1,2-a]pyrimidine-2-carboxamide], the EC50 in the experiment with HIV (setting [1]) was in the range of 20 to 100 nM. Take `CC(=O)N(C)c1cc(N2CCOCC2)cn2c(=O)c(O)c(C(=O)NCc3ccc(F)cc3)nc12` [Example 28.3, N-(4-fluorobenzyl)-3-hydroxy-9-(N-methylacetamido)-7-morpholino-4-oxo-4H-pyrido[1,2-a]pyrimidine-2-carboxamide]: the EC50 in the experiment on HIV (setting [1]) fell in the range of 1 to 10 nM; in the experiment with HIV-1 (Human immunodeficiency virus 1), 20 to 100 nM.
